Patent US20100282247A1, “TREATMENT OF PULMONARY DISORDERS WITH AEROSOLIZED MEDICAMENTS SUCH AS VANCOMYCIN” (Novartis AG, priority 2007, published 2010)

What was measured:
[1] = in vivo
Source text: One or more embodiments of the invention comprise systems and method for delivering relatively high concentrations of medicament without undue precipitation of the medicament in the delivery system. The on-vent adapter with the pattern of aerosol generation is designed to allow up to 90% of aerosol enter the artificial airway and allow 45-80% of dose to reach aerosol to the lungs. Hand Held adapter delivers inhaled mass of 75-90% with 40-55% of dose reaching the lungs as aerosol (based on AMIK phase II Scintigraphy.) Initially in vitro testing was showing precipitation of Vancomycin in powder form on the inspiratory filter.

[2] = test system: Gram-positive, pneumonia-causing bacteria; experiment: Reference MIC in tracheal aspirates (TA); assay type: cell-based, Staph species; settings: locally in TA
Procedure: The dose-response to aerosolized vancomycin, administered in accordance with one or more embodiments of devices, apparatus and/or methods of the present invention was evaluated, as was the ability to deliver a predefined target multiple of an MIC for Gram-positive bacteria causing pneumonia, including, Staph species, in the tracheal aspirates (TA). […] Thus the desired multiple is 128 μg/mL.

[3] = test system: vancomycin resistant S. aureas; settings: estimated; printed with "or more"; cited from earlier work
gram-positive bacteria = settings: P<=0.05, cited from earlier work
[4] = test system: vancomycin susceptable S. aureas; settings: estimated; cited from earlier work
[5] = aerosolized versus systemic vancomycin, n=10, high suspicion for MRSA respiratory infection; cited from earlier work
[6] = test system: vancomycin intermediate S. aureas; settings: estimated; cited from earlier work
S. aureus = settings: lowered by CLSI; cited from earlier work
[7] = parenterally administered; cited from earlier work

| SMILES | dose reaching the lungs as aerosol [1] | inhaled mass [1] | reference MIC value [2] | reference MIC [3] | CDC-NNIS diagnostic criteria for ventilator-associated pneumonia (VAP) (gram-positive bacteria; aerosolized vancomycin (n=14) and/or gentamicin-sulfate, placebo 75.0% to 78.6%) | WBC at Day 14 (gram-positive bacteria; versus placebo) | bacterial resistance (gram-positive bacteria; versus placebo) | clinical pulmonary infection score CPIS (gram-positive bacteria; versus placebo) | use of systemic antibiotics (gram-positive bacteria; versus placebo) | ventilator weaning (gram-positive bacteria; versus placebo) | reference MIC [4] | sputum vancomycin concentrations [5] | reference MIC [6] | vancomycin breakpoint (S. aureus) | levels in lung epithelial lining fluid as share of those seen in serum [7] |
| --- | --- | --- | --- | --- | --- | --- | --- | --- | --- | --- | --- | --- | --- | --- | --- |
| NCC[C@H](O)C(=O)N[C@@H]1C[C@H](N)[C@@H](O[C@H]2O[C@H](CN)[C@@H](O)[C@H](O)[C@H]2O)[C@H](O)[C@H]1O[C@H]1O[C@H](CO)[C@@H](O)[C@H](N)[C@H]1O [AMIK] | 40-55% | 75-90% |  |  |  |  |  |  |  |  |  |  |  |  |  |
| CN[C@H](CC(C)C)C(=O)N[C@H]1C(=O)N[C@@H](CC(N)=O)C(=O)N[C@H]2C(=O)N[C@H]3C(=O)N[C@H](C(=O)N[C@H](C(=O)O)c4cc(O)cc(O)c4-c4cc3ccc4O)[C@H](O)c3ccc(c(Cl)c3)Oc3cc2cc(c3O[C@@H]2O[C@H](CO)[C@@H](O)[C@H](O)[C@H]2O[C@H]2C[C@](C)(N)[C@H](O)[C@H](C)O2)Oc2ccc(cc2Cl)[C@H]1O [vancomycin] |  |  | 32 µg/mL | 16 to 32 µg/mL | 35.7% to 73.6% | lower | reduced | reduced | reduced | increased | 2 to 4 µg/mL | significantly increases | 8 to 16 µg/mL | 2 µg/mL | ~14% |
